Measurements from patent publication US5594033A, “Secoaporphine compound on arrhythmia” (National Science Council, priority 1993, dated 1997).
Where two headings read alike, the source gives them in different places.

Tests used:
[1] = test system: transient outward current (Ito) in rat ventricular cell; experiment: Transient outward current (Ito), voltage clamp; format: cell-based; conditions: for inhibition at 6 µM: Rattus norvegicus, read-out: Ito
Excerpt: (§1) Ventricular cells isolated from rats and guinea pigs were placed in a chamber mounted on an inverted microscope, the effects of the test compounds on the action potential and the membrane current were studied by single cell current clamp and voltage clamp technique.

[2] = test system: delayed rectifier (IK) in guinea pig ventricular cell; experiment: Delayed rectifier potassium current (IK), voltage clamp; format: cell-based; conditions: Cavia porcellus, guinea pig ventricle cell, read-out: Degree of inhibition of IK
Excerpt: as §1

[3] = test system: guinea pig left atrium treated with 0.6 μM ouabain; experiment: Ouabain induced arrhythmia in guinea pig left atria; conditions: for minimal effective concentration: Cavia porcellus, read-out: Concentration that suppressed the ouabain-induced arrhythmia
Experimental: The left atrium of guinea pigs was first treated with 0.6 μM of ouabain and the contractile force was monitored.

[4] = test system: myocyte action potential; experiment: Action potential of myocytes, single cell current clamp; format: cell-based, rat
Excerpt: as §1

[5] = test system: rat right atria, left atria and right ventricular strips; experiment: Contractile force and heart rate of isolated rat atria and right ventricle; conditions: n = 6, mean ± S.E.M.
Experimental: Method: After anesthetizing rats with pentobarbital, the heart was taken out, both the atrium and the right ventricle were separately placed in 10 ml of Tyrode solution. The spontaneous contraction of the right atrium was recorded. The contraction of the left atrium and the right ventricle was driven by stimulation at a frquency of twice per second.

[6] = test system: calcium current (ICa) of rat ventricle cell; experiment: Calcium inward current (ICa), voltage clamp; format: cell-based
Excerpt: as §1

[7] = test system: sodium current (INa), sodium channel; experiment: Sodium inward current (INa), voltage clamp; format: cell-based, rat; conditions: for V1/2 of potential-dependent steady state inactivation of sodium current: control -60.9 mV
Excerpt: as §1

COc1cc2ccc3c(CCN(C)C)cc(OC)c(OC)c3c2cc1OC [compound 8, N-methylsecoglaucine]
inhibition at 6 µM [1]: 70%

COc1cc2c(ccc3c(CCN(C)Cc4ccccc4)cc(O)c(OC)c32)cc1O [compound 5, N-benzylsecoboldine]
Inhibitory effect on transient outward current (Ito) versus quinidine ([1]; 3 μM, rat ventricular cell): more profound inhibitory effect | inhibition at 1 µM [2]: 30%

C=CCN(C)CCc1cc(O)c(OC)c2c1ccc1cc(OC)c(OC)cc12 [compound 3, N-allylsecopredicentrine]
minimal effective concentration [3]: 30 µM

C=CCN(C)CCc1cc(OC)c(OC)c2c1ccc1cc(OC)c(OC)cc12 [compound 4, N-allylsecoglaucine]
Effect on the myocyte action potential ([4]; compared with N-allylsecoboldine): very similar effect on the myocyte action potential as N-allylsecoboldine | Arrhythmia induced by Ouabain: effect on rhythm ([3]; FIG. 12, ouabain 0.6 μM): conversion to normal paced rhythm

C=CCN(C)CCc1cc(O)c(OC)c2c1ccc1cc(O)c(OC)cc12 [compound 1, N-allylsecoboldine]
Shift of the potential-dependent inactivation curve of Ito ([1]; FIG. 6, 0.6 μM): to the right | Prolongation of the myocyte action potential ([4]; 1 μM): prolongation of the myocyte action potential was seen | Duration of the action potential (prolonged to) ([4]; 3 μM, driven at 0.2 Hz): five | Action potential plateau ([4]; concentration not given, FIG. 4): increased it | activity at 9 µM ([5]; left atria driven at 2 Hz, read-out: Contractile tension (%)): 126 ± 6.3% | activity at 9 µM ([5]; right atria, spontaneous beating rate, read-out: H. R. (%)): 58.5 ± 3.4% | activity at 9 µM ([5]; right atria, spontaneous contraction, read-out: Contractile tension (%)): 164 ± 14% | activity at 9 µM ([5]; right ventricle strips driven at 2 Hz, read-out: Contractile tension (%)): 126 ± 7.3% | Inhibitory effect on calcium current ([6]; 3 μM): did not show any inhibitory effect | activity at 12 µM ([6]; 12 μM, added in cumulative manner, rat ventricle cell, read-out: Calcium current (ICa), % of control): 71% | inhibition at 12 µM ([6]; Rattus norvegicus, 0.1 h, 12 μM, non-treated cell retained 79% at 6 minutes, read-out: Actual degree of inhibition in calcium current, corrected for spontaneous rundown): 9% | inhibition at 1 µM [2]: 20 to 30% | inhibition at 3 µM ([2]; 3 μM): 50 to 60% | inhibition at 9 µM ([2]; 9 μM): 70 to 80% | V1/2 of potential-dependent steady state inactivation of sodium current ([7]; 3 μM): -70.8 mV | V1/2 of potential-dependent steady state inactivation of sodium current ([7]; 9 μM): -85.9 mV | Sodium current, % of control ([7]; 0.9 to 1.2 μM, guinea pig atrial cell or rat ventricle cell): 25 % of control

COc1cc2ccc3c(CCN(C)C)cc(O)c(OC)c3c2cc1OC [compound 9, N-methylsecopredicentrine]
inhibition at 6 µM [1]: 60%

C=C[C@H]1C[N@@]2CC[C@H]1C[C@@H]2[C@@H](O)c1ccnc2ccc(OC)cc12 [quinidine, reference compound]
inhibition at 3 µM ([1]; 3 μM, rat ventricular cell, read-out: Reduction of Ito): ~60% | Action potential plateau ([4]; 30 MM): decreased action potential plateau

CCN(CC)CC(=O)Nc1c(C)cccc1C [lidocaine, reference compound]
minimal effective concentration ([3]; guinea pig atrium, 0.6 μM ouabain): ≥ 30 µM

COc1cc2c(ccc3c(CCN(C)C#N)cc(O)c(OC)c32)cc1O [compound 26, N-cyanosecoboldine]
inhibition at 6 µM [1]: 80%
